Experimental data taken from US11311552B2, “Therapies for cancer” (PROXIMAGEN, LLC, priority 2015, dated 2022).

Experiments:
Format in all cases: in vivo
[1] = test system: haematopoietic stem cells (HSCs) and progenitor cells (CFU-GEMM); experiment: mobilisation of haematopoietic progenitor cells in mice (FIG. 1); details: assessed 1 hour later, vs vehicle
Experimental: FIG. 1 is a graph showing the degree of mobilisation of haematopoietic stem cells (HSCs) and progenitor cells (CFU-GEMM) in mice following injection of vehicle, AMD3100 (5 mg/kg) and 6-{4-[1-(Propan-2-yl)piperidin-4-yl]-1,4-diazepan-1-yl}-N-(pyridin-4-yl)pyridine-2-carboxamide (30 mg/kg).
In the experiment represented by FIG. 1, groups of 5 mice were injected with vehicle, AMD3100 (5 mg/kg) or injected sub cutaneously with 6-{4-[1-(Propan-2-yl)piperidin-4-yl]-1,4-diazepan-1-yl}-N-(pyridin-4-yl)pyridine-2-carboxamide (30 mg/kg) and the mobilisation of haematopoietic progenitor cells assessed 1 hour later. The data are expressed for the multipotential GEMM cells as colony forming units per ml of peripheral blood.

[2] = test system: human glioblastoma cell line (T98G); experiment: T98G subcutaneous xenograft growth in nude mice (FIG. 2, 3)
Experimental: The solid line represents the control (i.e. untreated). The data in FIG. 2 are presented as % of the tumours progressing in groups of 8-10 mice, where progression is defined as a 20% increase in tumour volume. Tumour volume was determined by measuring the width and depth of the tumour with calipers, and then calculating the volume. […] After 15 days all of the control mice had progressed, whereas none of the mice treated with 6-{4-[1-(Propan-2-yl)piperidin-4-yl]-1,4-diazepan-1-yl}-N-(pyridin-4-yl)pyridine-2-carboxamide had done so. Inhibition of growth of human glioblastoma cell line (T98G) in nude mice is expected to be predictive of a beneficial therapeutic outcome in human cancer patients, including patients suffering from glioblastoma and astrocytoma.
After the subcutaneous tumours had grown to at least 120 mm^3 the mice were randomised into groups and treated with temozolomide (16 mg/kg po daily for 5 days) and 6-{4-[1-(Propan-2-yl)piperidin-4-yl]-1,4-diazepan-1-yl}-N-(pyridin-4-yl)pyridine-2-carboxamide (50 mg/kg, once per day by oral gavage, for 5 days every week, dotted line).
The data are presented in FIG. 3 as % of the tumours progressing in groups of 8-10 mice, where progression is defined as a 20% increase in tumour volume.

[3] = test system: human glioblastoma cell line (U87MG); experiment: orthotopic (intracranial) U87MG tumours in nude mice: survival and time to progression by luminescence (FIG. 4-10)
Experimental: The experiments represented by FIGS. 4, 5, and 6 had the same control (i.e. vehicle only), and therefore the same control data. For improved clarity, the line representing the control data has been removed from FIGS. 5 and 6, but retained in FIG. 4.
Nude mice were immobilized on a stereotaxic apparatus and anaesthetized. The operative field was prepared with betadine. A small hole was made at 1.0 mm anterior and 2 mm lateral to the exposed bregma. A sterile 5 μL Hamilton syringe with a 26 gauge needle was inserted at a depth of 3.0 mm from the skull surface and withdrawn by 0.5 mm to inject 3×10^3 U87MG cells in a volume of 3 μL. The injection rate was set up to 1 μL/min. After the implantation of the tumour cells, the needle was left in place for 5 min to prevent reflux. The needle was then completely withdrawn from the brain over the course of […] (1.0 mm/min), and the skin was sutured. Just before treatment initiation (5 days after injection), animals were randomized to treatment groups of 10 mice each. A small amount of cells was chosen (3×10^3) to simulate a chemo-radiotherapic treatment made after surgery in which a low number of tumour cells remain in the operatory bed, re-grow and give arise to a recurrence. Treatments were started 5 days after cell injection when no luciferase activity was detectable intracranially, and continued for 35 days. Time to progression (i.e. detection of luminescence) was assessed, and the mice followed for up to 180 days. […] The y axis parameter ‘survival’ is the percentage of mice not yet euthanized. The y axis parameter ‘probability of detection’ is the percentage of mice having a tumour that has progressed to the stage where luminescence is detected.
The following dosage administrations were used: 6-{4-[1-(Propan-2-yl)piperidin-4-yl]-1,4-diazepan-1-yl}-N-(pyridin-4-yl)pyridine-2-carboxamide was dosed at 50 mg/kg po once daily. Bevacizumab was dosed at 4 mg/kg iv every 4 days. Temozolomide was dosed at 32 mg/kg po daily. Sunitinib was dosed at 40 mg/kg po daily. Radiotherapy consisted of 3×2Gy daily.
For this experiment, 5×10^3 U87MG cells were injected using the technique described above. Following injection of the U87MG cells, tumours were detectable in the mice, which were treated for 28 days.

Row | SMILES | mobilisation of HSCs from the mouse bone marrow (CFU-GEMM, colony forming units per ml of peripheral blood) ([1]; 30 mg/kg sub cutaneously) | mice with tumour progression (20% increase in tumour volume) after 15 days ([2]; 50 mg/kg once per day by oral gavage, 5 days every week, all control mice had progressed) | growth of T98G subcutaneous xenografts compared to control ([2]; alone, 50 mg/kg once per day by oral gavage, 5 days every week) | anti-tumour efficacy on T98G subcutaneous xenografts (% of tumours progressing) ([2]; combination: 50 mg/kg po once per day 5 days every week + temozolomide 16 mg/kg po daily for 5 days) | delay of tumour growth (probability of detection), HR ([3]; alone, 50 mg/kg po once daily, p<0.001, FIG. 9A/9B) | delay of growth of the tumour to a size detectable through luminescence, H.R. ([3]; alone, 50 mg/kg po once daily, to vehicle, FIG. 8A/8B) | survival, HR ([3]; combination with Bevacizumab 4 mg/kg iv every 4 days, 50 mg/kg po once daily, vs vehicle, p=0.002, FIG. 4) | time taken for progression of tumours (detection by luminescence), HR ([3]; combination with Bevacizumab 4 mg/kg iv every 4 days, vs vehicle, p=0.0001, FIG. 8A) | survival, HR ([3]; combination with Sunitinib 40 mg/kg po daily, 50 mg/kg po once daily, vs vehicle, p=0.2, FIG. 7) | time taken for progression of tumours (detection by luminescence), HR ([3]; combination with Sunitinib 40 mg/kg po daily, vs vehicle, p=0.0001, FIG. 8B) | survival, HR ([3]; combination with Temozolomide 32 mg/kg po daily, 50 mg/kg po once daily, vs Temozolomide alone, p=0.02, FIG. 5) | survival, HR ([3]; combination with irradiation and temozolomide, 5x10^3 U87MG cells, tumours detectable, treated for 28 days, p=0.025, FIG. 10) | survival, HR ([3]; combination with radiotherapy 3x2Gy daily, 50 mg/kg po once daily, vs radiotherapy alone, p=0.0002, FIG. 6) | delay of tumour growth (probability of detection), HR ([3]; irradiation (3x2Gy daily) alone vs combination with irradiation, p=0.0001, FIG. 9A) | delay of tumour growth (probability of detection), HR ([3]; temozolomide (32 mg/kg po daily) alone vs combination with temozolomide, p=0.01, FIG. 9B) | mobilisation of HSCs from the mouse bone marrow (CFU-GEMM, colony forming units per ml of peripheral blood) ([1]; 5 mg/kg, P<0.05)
1 | CC(C)N1CCC(N2CCCN(c3cccc(C(=O)Nc4ccncc4)n3)CC2)CC1 [6-{4-[1-(Propan-2-yl)piperidin-4-yl]-1,4-diazepan-1-yl}-N-(pyridin-4-yl)pyridine-2-carboxamide] | does not result in significant mobilisation | none | inhibits the growth | synergistic | 3.7 | 3.5 | 3.4 | 9.7 | 1.6 | 5.3 | 2.8 | 2.3 | 4.0 | 4.6 | 2.9 | 
2 | c1cc(CN2CCCNCCNCCCNCC2)ccc1CN1CCCNCCNCCCNCC1 [AMD3100, reference compound] |  |  |  |  |  |  |  |  |  |  |  |  |  |  |  | significantly greater than that caused by vehicle
